According to patent publication US9708306B2, “Benzimidazole derivatives and preparation process and pharmaceutical uses thereof” (WUHAN LL SCIENCE AND TECHNOLOGY DEVELOPMENT CO., LTD, priority 2015, dated 2017):
Values joined by “and” are separate entries in the source; they are usually repeats but may differ in a detail not shown here. Equal values may be shown once. Read-outs that look alike come from different tables or passages of the source.

Key:
[1] = system: spontaneously hypertensive rats (SHR); test: Effect on reducing blood pressure of spontaneously hypertensive rats (SHR) by multiple oral administrations; type: in vivo; conditions: for inhibition in vivo at 1 mg/kg / inhibition in vivo at 0.5 mg/kg / inhibition in vivo at 2 mg/kg: Rattus norvegicus
normal rats = test: Effect on blood pressure of normal rats by single oral administration; type: in vivo, Wistar rats; conditions: for inhibition in vivo at 1 mg/kg / change in vivo at 1 mg/kg: 1.0 mg/kg p.o.
[2] = system: renovascular hypertensive rats; test: Effect on reducing blood pressure of renovascular hypertensive rats by single oral administration; type: in vivo, Wistar rats
[3] = 1.0 mg/kg oral once per day, SHR, 1 hour after the administration, read-out: Maximum blood pressure reduction, 1st-day administration
[4] = 1.0 mg/kg oral once per day, SHR, 1 hour after the administration, read-out: Maximum blood pressure reduction, 7th-day administration
[5] = 1.0 mg/kg oral once per day, SHR, 1 hour after the administration, read-out: Maximum blood pressure reduction, 14th-day administration
[6] = 1.0 mg/kg oral, SHR, read-out: Heart Rate (effect on reducing heart rate)
[7] = Rattus norvegicus, po, 8 h, single, normal rats, read-out: blood pressure reduction at 8 h after the administration
[8] = Rattus norvegicus, po, single, normal rats, read-out: variations on heart rate
[9] = Rattus norvegicus, single oral administration, RHR, read-out: Variations on heart rate
[10] = Rattus norvegicus, single oral administration, two-kidney one-clip RHR, measured 1-10 h, read-out: Maximum blood pressure reduction
[11] = renal artery-ligated rat, 24 hours after the administration, dose not stated
[12] = renal artery-ligated rat, result in words

## CCOc1nc2cccc(C(=O)OCc3oc(=O)oc3C)c2n1Cc1ccc(-c2ccccc2-c2noc(=O)[nH]2)cc1 [Azilsartan medoxomil, reference compound]
[1]; [3]
  inhibition in vivo at 1 mg/kg: 32 ± 3.5%
[1]; [4]
  inhibition in vivo at 1 mg/kg: 34 ± 2.8%
[1]; [5]
  inhibition in vivo at 1 mg/kg: 36 ± 3.6%
[1]; [6]
  inhibition in vivo at 1 mg/kg: 8 ± 3%
Normal rats; [7]
  inhibition in vivo at 1 mg/kg: 6.4 ± 2.1%
Normal rats; [8]
  change in vivo at 1 mg/kg: -5 ± 2%
[2]; [9]
  change in vivo at 1 mg/kg: -7 ± 3%
[2]; [10]
  inhibition in vivo at 1 mg/kg: 30 ± 3.8%
[2]; [11]
  blood pressure reduction at 24 hours after the administration: 20%

## CCOc1nc2cccc(C(=O)OC(C)OC(=O)OCc3nc(C)c(C)nc3C)c2n1Cc1ccc(-c2ccccc2-c2noc(=O)[nH]2)cc1 (stereo not shown) [QR01019]
[1]; 0.5 mg/kg oral once per day, SHR, 1 hour after the administration, read-out: Maximum blood pressure reduction, 1st-day administration
  inhibition in vivo at 0.5 mg/kg: 16 ± 6.2%
[1]; 0.5 mg/kg oral once per day, SHR, 1 hour after the administration, read-out: Maximum blood pressure reduction, 7th-day administration
  inhibition in vivo at 0.5 mg/kg: 15 ± 7.9%
[1]; 0.5 mg/kg oral once per day, SHR, 1 hour after the administration, read-out: Maximum blood pressure reduction, 14th-day administration
  inhibition in vivo at 0.5 mg/kg: 18 ± 4.5%
[1]; 0.5 mg/kg oral, SHR, read-out: Heart Rate (effect on reducing heart rate)
  inhibition in vivo at 0.5 mg/kg: 20 ± 6%
[1]; [3]
  inhibition in vivo at 1 mg/kg: 36 ± 6.3%
[1]; [4]
  inhibition in vivo at 1 mg/kg: 38 ± 4.6%
[1]; [5]
  inhibition in vivo at 1 mg/kg: 35 ± 6.7%
[1]; [6]
  inhibition in vivo at 1 mg/kg: 18 ± 4%
[1]; 2.0 mg/kg oral once per day, SHR, 1 hour after the administration, read-out: Maximum blood pressure reduction, 1st-day administration
  inhibition in vivo at 2 mg/kg: 42 ± 4.8%
[1]; 2.0 mg/kg oral once per day, SHR, 1 hour after the administration, read-out: Maximum blood pressure reduction, 7th-day administration
  inhibition in vivo at 2 mg/kg: 46 ± 6.7%
[1]; 2.0 mg/kg oral once per day, SHR, 1 hour after the administration, read-out: Maximum blood pressure reduction, 14th-day administration
  inhibition in vivo at 2 mg/kg: 48 ± 8.6%
[1]; 2.0 mg/kg oral, SHR, read-out: Heart Rate (effect on reducing heart rate)
  inhibition in vivo at 2 mg/kg: 29 ± 2%
[1]; SHR, result in words
  blood pressure reduction effect compared with Azilsartan medoxomil: obviously superior to that of the Azilsartan medoxomil positive drug
[1]; during the whole administration, result in words
  reduction effects on the heart rate of SHR rats: significant reduction effects on the heart rate
Normal rats; Rattus norvegicus, po, 8 h, 0.5 mg/kg p.o., single, normal rats, read-out: blood pressure reduction at 8 h after the administration
  inhibition in vivo at 0.5 mg/kg: 2.4 ± 3%
Normal rats; [7]
  inhibition in vivo at 1 mg/kg: 4.2 ± 3.5%
Normal rats; Rattus norvegicus, po, 8 h, 2.0 mg/kg p.o., single, normal rats, read-out: blood pressure reduction at 8 h after the administration
  inhibition in vivo at 2 mg/kg: 4.5 ± 6.5%
Normal rats; Rattus norvegicus, po, 0.5 mg/kg p.o., single, normal rats, read-out: variations on heart rate
  change in vivo at 0.5 mg/kg: -5 ± 5%
Normal rats; [8]
  change in vivo at 1 mg/kg: -4 ± 6%
Normal rats; Rattus norvegicus, po, 2.0 mg/kg p.o., single, normal rats, read-out: variations on heart rate
  change in vivo at 2 mg/kg: 8%
[2]; Rattus norvegicus, 0.5 mg/kg, single oral administration, RHR, read-out: Variations on heart rate
  change in vivo at 0.5 mg/kg: 12 ± 4%
[2]; Rattus norvegicus, 0.5 mg/kg, single oral administration, two-kidney one-clip RHR, measured 1-10 h, read-out: Maximum blood pressure reduction
  inhibition in vivo at 0.5 mg/kg: 24 ± 4%
[2]; [9]
  change in vivo at 1 mg/kg: 25 ± 8%
[2]; [10]
  inhibition in vivo at 1 mg/kg: 38 ± 3.8%
[2]; Rattus norvegicus, 2.0 mg/kg, single oral administration, RHR, read-out: Variations on heart rate
  change in vivo at 2 mg/kg: 28 ± 6%
[2]; Rattus norvegicus, 2.0 mg/kg, single oral administration, two-kidney one-clip RHR, measured 1-10 h, read-out: Maximum blood pressure reduction
  inhibition in vivo at 2 mg/kg: 45 ± 7.5%
[2]; [11]
  blood pressure reduction at 24 hours after the administration: 26%
[2]; [12]
  blood pressure reduction effect compared with Azilsartan medoxomil: obviously superior to that of the Azilsartan medoxomil positive drug
  lasting time of the blood pressure reduction effect compared with Azilsartan medoxomil: close to that of Azilsartan medoxomil

## CCOc1nc2cccc(C(=O)OCOC(=O)OCc3nc(C)c(C)nc3C)c2n1Cc1ccc(-c2ccccc2-c2noc(=O)[nH]2)cc1 [QR01017]
[1]; rat, in vivo
  Heart Rate (effect on reducing heart rate): 18 ± 5% and 24 ± 4% and 29 ± 6%
  Maximum blood pressure reduction, 1st-day administration: 22 ± 5.0% and 34 ± 4.4% and 36 ± 4.5%
  Maximum blood pressure reduction, 7th-day administration: 22 ± 3.3% and 35 ± 3.9% and 38 ± 2.1%
  Maximum blood pressure reduction, 14th-day administration: 23 ± 3.9% and 36 ± 3.2% and 38 ± 3.6%
  reduction effects on the heart rate of SHR rats: significant reduction effects on the heart rate
Normal rats; rat, in vivo
  Variations on heart rate: −5 ± 2% and −2 ± 4% and −4 ± 3%
  blood pressure reduction at 8 h after the administration: 2.9 ± 4.5% and 3.3 ± 4.1% and 5.1 ± 3.2%
[2]; rat, in vivo
  Maximum blood pressure reduction: 25 ± 6.2% and 38 ± 3.5% and 46 ± 2.6%
  blood pressure reduction at 24 hours after the administration: 20%
  blood pressure reduction effect compared with Azilsartan medoxomil: obviously superior to that of the Azilsartan medoxomil positive drug
  lasting time of the blood pressure reduction effect compared with Azilsartan medoxomil: close to that of Azilsartan medoxomil
